Consider two molecules from patent publication US20070293486A1, “Alpha-Keto Carbonyl Calpain Inhibitors” (SANTHERA PHARMACEUTICALS (SCHWEIZ) AG, priority 2004, published 2007).

In test [1] the test system is Primary fibroblasts from donors with Friedreich Ataxia (FRDA). Kind of test: BSO Assay (cell viability under BSO-induced oxidative stress). Particulars: Homo sapiens, Fibroblast. It counts as cell-based. How it is done:
Primary fibroblasts were derived from donors with molecular diagnosis for Friedreich Ataxia (FRDA) and control donors with no mitochondrial disease. Cell lines were obtained from Coriell Cell Repositories (Camden, N.J.; catalog numbers GM04078, GM08402 and GM08399 respectively). All cell types were diagnosed on the molecular level for intronic […] triplet repeat length of at least 400-450 repeats using a PCR-based method. […] Cell viability was measured after the first signs of toxicity appeared in the BSO-treated controls (typically after 16 to 48 h). […] Fluorescence intensity was measured with a Gemini Spectramax XS spectrofluorimeter (Molecular Devices, Sunnyvale, Calif.) using excitation and emission wavelengths of 485 nm and 525 nm respectively.

The target in another test is T1, human μ-calpain (Homo sapiens, UniProt P07384).
T1 construct: purchased Calbiochem
T1 sequence (P07384 1-714): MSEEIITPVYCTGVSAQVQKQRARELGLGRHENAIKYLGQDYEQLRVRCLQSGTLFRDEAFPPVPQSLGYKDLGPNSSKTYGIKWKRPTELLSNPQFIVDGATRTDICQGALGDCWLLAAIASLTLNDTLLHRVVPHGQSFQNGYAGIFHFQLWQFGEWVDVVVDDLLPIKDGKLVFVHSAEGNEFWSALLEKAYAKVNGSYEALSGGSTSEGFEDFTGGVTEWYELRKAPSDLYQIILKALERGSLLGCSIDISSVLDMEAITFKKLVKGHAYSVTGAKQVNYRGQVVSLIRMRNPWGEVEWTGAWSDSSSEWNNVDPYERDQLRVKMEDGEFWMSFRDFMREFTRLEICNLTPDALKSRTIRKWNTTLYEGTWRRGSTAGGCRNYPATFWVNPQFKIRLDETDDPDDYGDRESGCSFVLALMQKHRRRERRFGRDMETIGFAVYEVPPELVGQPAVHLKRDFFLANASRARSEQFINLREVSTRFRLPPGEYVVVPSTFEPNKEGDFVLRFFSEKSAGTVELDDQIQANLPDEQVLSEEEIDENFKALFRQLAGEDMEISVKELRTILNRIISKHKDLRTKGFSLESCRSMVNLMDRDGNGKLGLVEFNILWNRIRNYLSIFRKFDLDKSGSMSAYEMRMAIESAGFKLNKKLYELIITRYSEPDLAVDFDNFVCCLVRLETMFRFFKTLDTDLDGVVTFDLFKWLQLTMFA
T1 sequence (P04632 1-268 partner): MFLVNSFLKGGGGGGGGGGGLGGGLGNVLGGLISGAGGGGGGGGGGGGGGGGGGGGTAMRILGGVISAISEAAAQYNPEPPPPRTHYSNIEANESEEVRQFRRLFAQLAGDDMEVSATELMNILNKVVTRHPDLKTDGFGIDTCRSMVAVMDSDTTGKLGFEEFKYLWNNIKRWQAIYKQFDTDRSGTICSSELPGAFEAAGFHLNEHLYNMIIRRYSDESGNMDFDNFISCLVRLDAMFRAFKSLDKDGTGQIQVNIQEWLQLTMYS
The experiment in a line: Enzymatic Calpain Inhibition Assay. Particulars: enzymatic calpain I inhibition; read-out: Calp I IC50. It counts as biochemical. How it is done:
The Ki value was also determined in some cases. These criteria were used to measure the inhibitory effect of the compounds (I) on calpain I, calpain II and cathepsin B.
The inhibitory properties of calpain inhibitors are tested in 100 μl of a buffer containing 100 mM imidazole pH 7.5, 5 mM L-Cystein-HCl, 5 mM CaCl2, 250 μM of the calpain fluorogenic substrate Suc-Leu-Tyr-AMC (Sigma) (Sasaki et al., J. Biol. Chem., 1984, 259, 12489-12949) dissolved in 2.5 μl DMSO and 0.5 μg of human μ-calpain (Calbiochem). The inhibitors dissolved in 1 μl DMSO are added to the reaction buffer. The fluorescence of the cleavage product 7-amino-4-methylcoumarin (AMC) is followed in a SPECTRAmax GEMINI XS (Molecular Device) fluorimeter at λex=360 nm and λem=440 nm at 30° C. during 30 min at intervals of 30 sec in 96-well plates (Greiner). The initial reaction velocity at different inhibitor concentrations is plotted against the inhibitor concentration and the IC50 values determined graphically.

For test [2], the system named is utrophin protein levels in human DMD myotubes. The experiment in a line: Utrophin Expression Assay in Human Myotubes. Particulars: 50 nM test compound. It counts as cell-based. The protocol: Utrophin induction was determined by a method which was similar to a method of 1. Courdier-Fruh et al., Neuromuscular Disord., 2002, 12, S95-S104. Primary human muscle cell cultures were prepared from muscle biopsies taken during orthopedic surgery from Duchenne patients (provided by the Association Francaise contre les Myopathies). Cultures were prepared and maintained according to standard protocols. Induction of utrophin expression in human DMD myotubes was assayed at 50 nM or 500 nM of test compound added in differentiation medium. Normalized utrophin protein levels are determined after 56 d of incubation by cell-based ELISA with a mouse monoclonal antibody to the aminoterminal portion of utrophin (NCL-DRP2, Novocastra Laboratories). For calibration, the cell density and differentiation was determined by absorbance measurements of the total dehydrogenase enzyme activity in each well using the calorimetric CellTiter 96®AQ One Solution Reagent Proliferation Assay (Promega) according to the manufacturer's recommendation. Subsequently, cells were fixed, washed, permeabilized with 0.5% (v/v) Triton X-100 and unspecific antibody binding-sites blocked by standard procedures. Utrophin protein levels were determined immunologically with utrophin-specific primary antibody and with an appropriate peroxidase-coupled secondary antibody (Jackson ImmunoResearch Laboratories) using QuantaBlu™ Fluorogenic Peroxidase Substrate Kit (Pierce) for detection. Fluorescence measurements were carried out with a multilabel counter (Wallac) at λex=355 nm and at λem=460 nm. The primary readout of this signal is presented in arbitrary units. For calibration, the arbitrary units representing the relative utrophin protein content of each well was divided by the corresponding cell-titer absorbance value to correct for cell density. For comparison between experiments, the cell-titer corrected readout for utrophin protein content in each well was expressed in percent of solvent treated control cultures (set to 100%), i.e. data are % utrophin protein levels compared to DMSO solvent (N=4).

`CCNC(=O)C(=O)[C@H](Cc1ccc(Cl)cc1)NC(=O)[C@@H](NC(=O)[C@H](Cc1ccccc1)NC(=O)CCCCC1CCS[S+]1[O-])C(C)C` (stereo partly shown) [Example 2] had a half-maximal effective concentration (EC50) in test [1] of 800 nM. For the same molecule, on human μ-calpain, the IC50 amounted to 38 nM.
As to `CCNC(=O)C(=O)C(Cc1ccc(OC)cc1)NC(=O)C(CC(C)C)NC(=O)C(Cc1cccc2ccccc12)NC(=O)CCCCC1CCSS1` (stereo not shown) [Example 637], on human μ-calpain, the IC50 is 30 nM. In addition, in test [2], the “UTR Induction @50 nM” value worked out at 121%.

As a reminder, the EC50 is the concentration giving half of the maximal effect. A low value points to higher potency in that assay. One may read the IC50 as the concentration at which inhibition is half-maximal.
